From patent publication US20050075398A1, “Neuroprotectin D1 protects against cellular apoptosis, stroke damage, alzheimer's disease and retinal diseases” (priority 2003, published 2005) come the findings set out here.

Test [1] deals with infarcted volume (stroke volume). The experiment in a line: Stroke volume by TTC staining after MCA-O. The format is in vivo, mouse. As for the experimental part:
Assessment of stroke volume. Forty-eight hours after MCA-O, mice were killed, and brains were dissected and immersed in ice-cold saline. The dissected brains were embedded in agar blocks and sectioned into coronal slices 1 mm thick by a vibratome (Vibratome Co. St. Louis, Mo.). Sections were incubated at room temperature in a 3% buffered solution of 2,3,5,-triphenyltetrazolium chloride (TTC). Once color developed (10 to 15 min), sections were fixed in 10% buffered formalin, and kept at 4° C. until images were recorded by a camera (Cool-snap, Nikon) mounted to a dissecting microscope. In the digital images, total brain area and stroke areas were analyzed and calculated by Adobe Photoshop software. Serial sections were made for all animals. (Digital images not included).
To test for in vivo bioactivity of 10,17S-docosatriene (NPD1) in brain during focal ischemic stroke, Alzet mini-pumps were implanted into the third ventricle to deliver the lipid messenger over the 48 h reperfusion following 1 h of MCA-O. Brain coronal sections were incubated at room temperature in 3% buffered TTC (triphenyltetrazolium chloride) for approximately 10-15 min. The docosanoid 10,17S-docosatriene (NPD1) was infused (1 μg over 48 h by implanted Alzet mini-pumps). In photos, colorless areas indicated mitochondrial damage reflecting the inability to metabolize TTC. […]

Test [2] concerns COX-2 mRNA. The experiment in a line: COX-2 mRNA in IL-1β-exposed human neural progenitor cells. The format is cell-based. Conditions: p<0.05. As for the experimental part: Human neural (HN) progenitor cells in primary culture. HN cells were grown to ˜70% confluence (˜50,000 cells per 3.5-cm diameter well) in 6-well COSTAR plates at 37° C., 5% CO2/20% O2/75% N2 in humidified air at 1 atm (normoxic conditions) in NPMM medium (Clonetics CC-4241) supplemented with hFGF, NSF-1, hEGF, GA-1000, as described by the manufacturer (Clonetics, Walkersville, Md.). HN cells tested negative for HIV-1, hepatitis B and C, mycoplasma, bacteria, yeast, and fungi, and positive for the glial and neuronal markers GFAP, MAP2, and β-tubulin III (Clonetics). After two weeks of development, HN cells were exposed to human recombinant interleukin 1-beta (IL-1β) (10 ng/ml) for 3 h in the presence or absence of 0.03, 0.3, 3.0, 30, and 300 nM 10,17S-docosatriene (NPD1), DHA, or PBS pH 7.4 (control). RNA and protein were quickly isolated using Trizol Reagent (Invitrogen, Carlsbad, Calif.) and stored at −81° C. within minutes of isolation.
COX-2 RNA abundance in hippocampus and HN cells. Abundance of human-specific COX-1 and COX-2 RNA message was assayed using RT-PCR as described in Bazan, N. G., and Lukiw, W. J. (2002) J. Biol. Chem. 277, 30359-30367.

The subject of test [3] is Bik gene expression. The test can be described thus: HGU133 GeneChip DNA array in HN cells: Bik. The format is cell-based, human. To be noted: Aβ42 25 μM, DHA 50 nM or NPD1 50 nM, 18 h, nsc = no significant change. An excerpt: RNA Isolation and Spectral Quality. Brain tissues were rapidly processed, and total RNA was extracted using Trizol reagent (Invitrogen, Carlsbad, Calif.). Total RNA quality and abundance were profiled using RNA Nano LabChips (Caliper Technologies, Mountainview, Calif.; Agilent Technologies, Palo Alto, Calif.).
Probe Synthesis and GeneChip Hybridization. Biotinylated antisense cRNAs were synthesized from cDNA using the Superscript Choice System (Invitrogen) and Enzo Biorray High Yield RNA Transcript Labeling kits according to the manufacturer's protocols (Affymetrix) and as described in Colangelo, V., Schurr, J., Ball, M. J., Pelaez, R. P., Bazan, N. G., Lukiw, W. J. (2002) J. Neurosci. Res., 70: 462-473; and Lukiw, W. J. (2004) Neurochem. Research, 29: 1287-1297. Probes were hybridized against HU133Av2 GeneChip DNA arrays that interrogate approximately 33,000 full-length […] genes and expressed sequence tag (EST) clusters. […]
GeneChip Data and Statistical Analysis. […] Volcano plots were plotted representing total gene expression patterns as a function of fold-change as compared to expression patterns of age-matched controls as plotted against p, as calculated by an analysis of variance (ANOVA). […] Statistical significance was analyzed using a two-way factorial analysis of variance (p, ANOVA; Statistical Analysis System; SAS Institute, Cary, N.C. ).

For test [4], the system named is Bcl-2. The test can be described thus: Western blot of Bcl-2 in ARPE-19 cells under TNFα/H2O2. Conditions: 50 nM; TNFα plus H2O2 (400 or 800 μM) 6 h. The format is cell-based, human. As for the experimental part:
Analysis of pro- and anti-apoptotic proteins in ARPE-19 cells: Bcl-2 family proteins were analyzed by Western-blot analysis. In brief, 20-μg equivalents of each cell extract were subjected to electrophoresis on a 8-16% gel (Promega, Madison, Wis.) at 125 volts for 2 h. The proteins were transferred to nitrocellulose membrane at 30 volts for 1 h at 4° C. The membranes were subjected to treatment with primary antibodies of Bcl-2, Bcl-xL, Bax, and Bad for 1 h at room temperature, and probed 30 min with secondary antibody, goat anti-rabbit Ig:HRPO and HRP-conjugated anti-biotin antibody. (BD Sciences—Pharminogen, San Diego, Calif.) Then proteins were evaluated using an ECL kit. (Amersham Biosciences Corp., Piscataway, N.J.)
Using the same TNFα/H2O2 concentrations, Bcl-2 proteins were assayed. Cells were grown for 72 h after plating, placed in serum-free medium for 1 h, then incubated with TNFα/H2O2 for 6 h. Protein expression and Western-blot analysis were performed as described in Example 13. Data in FIGS. 14A, 14B, 14C and 14D represent four independent experiments with triplicate samples in each case. Anti-apoptotic protein Bcl-xL was enhanced in ARPE-19 cells by TNFα/H2O2 (800 μM) (FIG. 14B, first bar), whereas Bcl-2 was not changed (FIG. 14A, first bar).
For orientation: A western blot detects proteins with antibodies after separation by electrophoresis.

As to `CC/C=C\C[C@H](O)\C=C/C=C/C=C/[C@H](O)C/C=C\C/C=C\CCC(=O)O` [NPD1, 10,17S-docosatriene], the “reduction of stroke volume” value in test [1] (1 μg over 48 h at 250 nl/h intracerebroventricular, after 48 h) turned out to be 50%. Also, the “focal infarcted volume, percentage of total volume” value in test [1] (1 μg over 48 h by Alzet mini-pump into third ventricle, 1 h MCA-O, 48 h reperfusion, vehicle about 30%) is listed as “less than 15%”. Besides, in test [2], the “effect on IL-1β-induced expression of COX-2 mRNA” value was “inhibited”. Moreover, the “Bik gene expression, fold change over untreated controls” value in test [3] was “nsc”. Moreover, the “effect on Bcl-2 expression” value in test [4] was “increased expression”.
